Measurements reported in PubChem BioAssay (NCI).
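In this assay, cells in 96-well plates receive the compound at five concentrations for 48 hours. Endpoints are linearly interpolated between the surrounding concentrations. The concentration for full growth arrest is given as TGI.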

Key:
Assay in all cases: DTP human tumour cell line panel, 48 h
SNB-75 CNS = test system: SNB-75 CNS
HCC-2998 colon = test system: HCC-2998 colon
PC-3 prostate = test system: PC-3 prostate
SF-268 CNS = test system: SF-268 CNS
T-47D breast = test system: T-47D breast
SR leukemia = test system: SR leukemia
HS 578T breast = test system: HS 578T breast

SMILES: CCOC(=O)Cn1c(=O)c2cc(-c3ccccc3)cc3c(Cl)nc4c(OC)c(OC)cc1c4c32
- TGI (SNB-75 CNS): 49.6 µM
- TGI (HCC-2998 colon): 34.5 µM
- TGI (PC-3 prostate): 55.4 µM
- TGI (SF-268 CNS): 29.2 µM
- TGI (T-47D breast): > 100 µM
- TGI (SR leukemia): > 100 µM
- TGI (HS 578T breast): > 27.7 µM

SMILES: O=C1CCCC2=C1CC1=C(CCCC1=O)N2c1ccccc1
- TGI (SNB-75 CNS): > 100 µM
- TGI (HCC-2998 colon): > 100 µM
- TGI (PC-3 prostate): > 100 µM
- TGI (SF-268 CNS): > 100 µM
- TGI (SR leukemia): > 100 µM
- TGI (HS 578T breast): > 100 µM

SMILES: CCOC(=O)C(C(=O)OCC)=C1NC2(c3ccccc3Nc3ccc(C)cc32)C(C(=O)OC)S1 (stereo unspecified)
- TGI (SNB-75 CNS): 62.4 µM
- TGI (HCC-2998 colon): > 100 µM
- TGI (PC-3 prostate): > 100 µM
- TGI (SF-268 CNS): > 100 µM
- TGI (T-47D breast): 67.2 µM
- TGI (SR leukemia): > 100 µM
- TGI (HS 578T breast): 69.2 µM

SMILES: Oc1cccc(-c2cn3cc(C(F)(F)F)ccc3n2)c1
- TGI (HCC-2998 colon): 54 µM
- TGI (PC-3 prostate): > 100 µM
- TGI (SF-268 CNS): > 100 µM
- TGI (T-47D breast): 21.2 µM
- TGI (SR leukemia): > 100 µM
- TGI (HS 578T breast): > 100 µM

SMILES: COC(=O)[C@H](Cc1ccccc1)NP(=O)(O)OCC1C=CC(n2cc(C)c(=O)[nH]c2=O)O1 (stereo partly specified)
- TGI (SNB-75 CNS): > 100 µM
- TGI (HCC-2998 colon): > 100 µM
- TGI (PC-3 prostate): > 100 µM
- TGI (SF-268 CNS): > 100 µM
- TGI (T-47D breast): > 100 µM
- TGI (HS 578T breast): > 100 µM

SMILES: CC(C)C1CC[C@H](C)C[C@@H]1OC(=O)C(C(=O)O[C@H]1C[C@@H](C)CCC1C(C)C)C(O)[C@@H]1OC(C)(C)O[C@H]1C1COC(C)(C)O1 (stereo partly specified)
- TGI (SNB-75 CNS): 53 µM
- TGI (HCC-2998 colon): 26.7 µM
- TGI (SF-268 CNS): 42.7 µM
- TGI (T-47D breast): 32.3 µM
- TGI (SR leukemia): 34.9 µM
- TGI (HS 578T breast): 36.5 µM

SMILES: CC(=O)OCC1OC(O/C=C(\CN=[N+]=[N-])C(C)=O)C(OC(C)=O)C(OC(C)=O)C1OC(C)=O (stereo unspecified)
- TGI (SNB-75 CNS): 33.3 µM
- TGI (HCC-2998 colon): 35 µM
- TGI (PC-3 prostate): 27.8 µM
- TGI (SF-268 CNS): 56.9 µM
- TGI (T-47D breast): 13.4 µM
- TGI (SR leukemia): 7.69 µM
- TGI (HS 578T breast): > 100 µM

SMILES: COC(=O)c1ccccc1C1CN=NC12Cc1cccc(C)c1C2=O (stereo unspecified)
- TGI (SNB-75 CNS): > 100 µM
- TGI (HCC-2998 colon): > 100 µM
- TGI (SF-268 CNS): > 100 µM
- TGI (T-47D breast): 56.4 µM
- TGI (SR leukemia): > 100 µM
- TGI (HS 578T breast): > 100 µM

SMILES: Nc1ccc(Oc2ccc(C34CC5CC6C3CC3CC4C(C5)C6(c4ccc(Oc5ccc(N)c(O)c5)cc4)C3)cc2)cc1O
- TGI (HCC-2998 colon): 7.57 µM
- TGI (PC-3 prostate): 11.9 µM
- TGI (SF-268 CNS): 29.2 µM
- TGI (T-47D breast): > 63.7 µM
- TGI (SR leukemia): 8.49 µM
- TGI (HS 578T breast): 80.5 µM

SMILES: c1ccc(N=C2SC3=NCCN3C2=Nc2ccccc2)cc1
- TGI (SNB-75 CNS): 43.3 µM
- TGI (HCC-2998 colon): 52.4 µM
- TGI (PC-3 prostate): 60.6 µM
- TGI (T-47D breast): 44.4 µM
- TGI (SR leukemia): > 100 µM
- TGI (HS 578T breast): > 100 µM

SMILES: CC(Cc1ccccc1)NC1=NCCO1 (stereo unspecified)
- TGI (SNB-75 CNS): > 100 µM
- TGI (HCC-2998 colon): 71 µM
- TGI (PC-3 prostate): > 100 µM
- TGI (T-47D breast): > 100 µM
- TGI (SR leukemia): 63.5 µM
- TGI (HS 578T breast): > 100 µM

SMILES: CC(NC(C#N)CC12CC3CC(CC(C3)C1)C2)c1ccccc1 (stereo unspecified)
- TGI (HCC-2998 colon): > 100 µM
- TGI (PC-3 prostate): > 100 µM
- TGI (SF-268 CNS): > 100 µM
- TGI (T-47D breast): > 100 µM
- TGI (SR leukemia): > 100 µM

SMILES: CSCCC(NC(=O)OCc1ccccc1)NC(=O)OCc1ccccc1
- TGI (SNB-75 CNS): > 100 µM
- TGI (HCC-2998 colon): > 100 µM
- TGI (PC-3 prostate): > 100 µM
- TGI (T-47D breast): > 100 µM
- TGI (SR leukemia): > 100 µM
- TGI (HS 578T breast): > 100 µM

SMILES: c1ccc(C(CCN2CC3CCC(CC3)C2)c2ccccc2)cc1
- TGI (SNB-75 CNS): 85.9 µM
- TGI (PC-3 prostate): > 100 µM
- TGI (SF-268 CNS): 69.2 µM
- TGI (T-47D breast): 49.1 µM
- TGI (SR leukemia): 46.4 µM
- TGI (HS 578T breast): 50.5 µM

SMILES: CC(NC(=O)C(N)CC(=O)O)NC(=O)N(C)C(C)(C)C (stereo unspecified)
- TGI (SNB-75 CNS): > 100 µM
- TGI (HCC-2998 colon): > 100 µM
- TGI (PC-3 prostate): > 100 µM
- TGI (SF-268 CNS): > 100 µM
- TGI (T-47D breast): > 100 µM
- TGI (SR leukemia): > 100 µM
- TGI (HS 578T breast): > 100 µM

SMILES: CC(C)(C)c1ccc(C(C)(C)C)c(N2C(=O)C3ON=C(c4ccc([N+](=O)[O-])cc4)C3C2=O)c1 (stereo unspecified)
- TGI (SNB-75 CNS): 14.3 µM
- TGI (HCC-2998 colon): > 25 µM
- TGI (SF-268 CNS): > 25 µM
- TGI (T-47D breast): > 25 µM
- TGI (SR leukemia): > 25 µM
- TGI (HS 578T breast): > 25 µM

SMILES: CCc1nc2ccc(C(F)(F)F)cc2[nH]c1=O
- TGI (SNB-75 CNS): > 100 µM
- TGI (HCC-2998 colon): > 100 µM
- TGI (PC-3 prostate): > 100 µM
- TGI (SF-268 CNS): > 100 µM
- TGI (HS 578T breast): > 100 µM

SMILES: O=C(OCCC12CC3CC(CC(C3)C1)C2)c1ccc(NCc2cc(O)ccc2O)cc1
- TGI (SNB-75 CNS): 2.99 µM
- TGI (PC-3 prostate): 14.5 µM
- TGI (SF-268 CNS): 12.7 µM
- TGI (T-47D breast): 0.584 µM
- TGI (SR leukemia): 4.43 µM
- TGI (HS 578T breast): 0.542 µM

SMILES: O=[N+]([O-])c1ccc2c(c1)c(S(=O)(=O)O)cc1nonc12
- TGI (PC-3 prostate): > 100 µM
- TGI (SF-268 CNS): > 100 µM
- TGI (T-47D breast): > 100 µM
- TGI (SR leukemia): > 100 µM
- TGI (HS 578T breast): > 100 µM

SMILES: CCN(CC)CCCOc1cc2c(cc1OC)C(=O)N1CCC[C@H]1C=N2
- TGI (PC-3 prostate): > 100 µM
- TGI (SF-268 CNS): > 100 µM
- TGI (SR leukemia): > 100 µM
- TGI (HS 578T breast): > 100 µM

SMILES: NS(=O)(=O)c1nnc(NS(=O)(=O)c2ccccc2C(=O)O)s1
- TGI (HCC-2998 colon): > 100 µM
- TGI (SF-268 CNS): > 100 µM
- TGI (T-47D breast): > 100 µM
- TGI (SR leukemia): > 100 µM
- TGI (HS 578T breast): > 100 µM

SMILES: CC1(CC2=C(C(=O)NCCO[Si](C)(C)C(C)(C)C)C3(OCCO3)C2=O)OCCO1
- TGI (SNB-75 CNS): > 100 µM
- TGI (PC-3 prostate): > 100 µM
- TGI (SF-268 CNS): > 100 µM
- TGI (T-47D breast): > 100 µM
- TGI (HS 578T breast): > 100 µM

SMILES: CCSc1nc(N)c2c(-c3ccccc3)c3c(nc2n1)CCC3
- TGI (SNB-75 CNS): > 100 µM
- TGI (PC-3 prostate): > 100 µM
- TGI (SF-268 CNS): > 100 µM
- TGI (T-47D breast): > 100 µM
- TGI (SR leukemia): > 100 µM
- TGI (HS 578T breast): > 100 µM

SMILES: CC(=O)NC(Cc1ccc(OP(=O)(OCc2ccc([N+](=O)[O-])o2)N(C)CCCCCl)cc1)C(=O)NC(C)c1ccc(OCC2CCCCC2)c(C(N)=O)c1 (stereo unspecified)
- TGI (HCC-2998 colon): 3.42 µM
- TGI (PC-3 prostate): 10.5 µM
- TGI (SF-268 CNS): 6.48 µM
- TGI (T-47D breast): 6.31 µM
- TGI (SR leukemia): 6.42 µM
- TGI (HS 578T breast): 4.65 µM

SMILES: Clc1c(C(Cl)(Cl)Cl)nsc1N1CCCCC1
- TGI (SNB-75 CNS): 81.8 µM
- TGI (HCC-2998 colon): 47.9 µM
- TGI (PC-3 prostate): 95.3 µM
- TGI (SF-268 CNS): > 100 µM
- TGI (SR leukemia): 36.5 µM
- TGI (HS 578T breast): > 100 µM

SMILES: C(=C\c1cc(-c2ccc3ccccc3n2)nc2ccc3ccccc3c12)/c1ccc2ccccc2n1
- TGI (SNB-75 CNS): 97.9 µM
- TGI (HCC-2998 colon): > 100 µM
- TGI (PC-3 prostate): > 100 µM
- TGI (SF-268 CNS): > 100 µM
- TGI (SR leukemia): > 100 µM
- TGI (HS 578T breast): > 100 µM

SMILES: CC(=O)/C=C(\O)c1[nH]c(C(=O)O)cc1C1CCN(Cc2ccccc2)C1=O (stereo unspecified)
- TGI (SNB-75 CNS): 63.1 µM
- TGI (HCC-2998 colon): 46.4 µM
- TGI (PC-3 prostate): > 100 µM
- TGI (SF-268 CNS): 49.5 µM
- TGI (T-47D breast): 49.8 µM
- TGI (HS 578T breast): > 100 µM

SMILES: O=C(OCc1ccccc1)N1CCN(C(=O)OCc2ccccc2)CCN(C(=O)OCc2ccccc2)CCN(C(=O)OCc2ccccc2)CCN(C(=O)OCc2ccccc2)CC1
- TGI (SNB-75 CNS): 96.6 µM
- TGI (HCC-2998 colon): > 100 µM
- TGI (PC-3 prostate): > 100 µM
- TGI (T-47D breast): > 100 µM
- TGI (HS 578T breast): > 100 µM

SMILES: CCN1CCC(O)(c2ccc(Oc3ccc(C)cc3)cc2)C(C(=O)c2ccc(Oc3ccc(C)cc3)cc2)C1 (stereo unspecified)
- TGI (SNB-75 CNS): 20.4 µM
- TGI (HCC-2998 colon): 20.8 µM
- TGI (PC-3 prostate): 24.5 µM
- TGI (SF-268 CNS): 32.9 µM
- TGI (T-47D breast): 33.7 µM
- TGI (HS 578T breast): 48.3 µM

SMILES: c1ccc2c(c1)CC1COc3ccccc3C1O2 (stereo unspecified)
- TGI (SNB-75 CNS): > 100 µM
- TGI (HCC-2998 colon): > 100 µM
- TGI (PC-3 prostate): > 100 µM
- TGI (SF-268 CNS): > 100 µM
- TGI (T-47D breast): > 100 µM
- TGI (SR leukemia): > 100 µM
